Assay results as given in US20130165625A1, “PEPTIDES INCORPORATING 3-AMINOADAMANTANE CARBOXYLIC ACIDS ENHANCE SYNAPTIC PLASTICITY AND ACT AS NEUROGENIC AGENTS” (JUSTUS-LIEBIG-UNIVERSITAT GIESSEN, priority 2010, published 2013).
Residues, ends and D or L forms follow the SMILES beside them.

Key:
[1] = General examination: body weight and physical state during peptide treatment; type: in vivo, mice; settings: s.c. depot pellets 25 nmol/day for 35 days; for effect on body weight: FIG. 1A, female C57BI6 mice
Procedure: (§1) All in vivo studies for characterization of peptides (stereology and behavioral analysis) were performed on 8-10-month-old female retired breeders of C57BI6 background. Animals were acclimatized for at least 3 weeks to exclude occasional pregnant mice from the studies. Mice were group-housed (3 animals per cage) with a 12:12 hours light/dark cycle and with free access to food and water. All procedures were conducted in accordance with approved protocols from our institutional Animal Welfare Committee. For the peptide treatment, mice (8 animals/group) received subcutaneous implants of long term continuous release depot pellets containing Peptide021 or Peptide022 at 25 nmol/day for 35 days of continuous dosing (Innovative Research of America, Sarasota, Fla.). For the control group (8 animals), pellets consisted of the carrier polymer only. Mice were anesthetized with 2.5% Avertin (0.38 ml for a 25 g animal). Under sterile conditions, pellets were implanted subcutaneously along the anterolateral aspect of the right shoulder with a precision trochar (Innovative Research of America, Sarasota, Fla.). After recovery of anesthesia, animals were transferred to the animal colony. […] To investigate neurogenesis, BrdU (Sigma, St. Louis, Mo.) was given as two daily i.p. injections (100 mg/kg/dose) for five days starting on day 2 of peptides treatment.
The physical state and condition of animals were carefully monitored throughout the treatment by evaluating grooming, physical state and clasping reflex. Body weight was also recorded.

mice [2] = assay: Open field familiarization session (locomotor/exploratory activity and anxiety); type: in vivo; settings: for anxiety level of mice: FIG. 1B, time in centre of arena, first 5 minutes, s.c. pellets 25 nmol/day; for effect on exploratory activity: FIG. 1C, open field, s.c. pellets 25 nmol/day for 35 days
Procedure: as §1
In the one-trial object recognition task, animals are exposed to two different objects which they have to identify as novel or familiar based on the memory of an earlier experience with one of the two objects they encountered in the same open field. The familiar object is explored shorter than the novel encountered one because the representation of the former is still available in memory. The one-trial object recognition task tests some aspects of episodic memory but is limited to memory of an object (what), the location of an object (where), and the context in which is was encountered (which). However, the temporal dimension of the episode remains inaccessible to the experimentator, and because of this reason this task in animals is considered a test of short term memory (Ennaceur, 2010). The test used was an adaptation of the procedure previously described by Sargolini and collaborators (2003). The testing apparatus was a classic open field (i.e. a PVC square arena, 50×50 cm, with walls 40 cm high). The open field was placed in a part of the room separated from the experimentator with a black opaque curtain. The open field was surmounted by a video camera connected to a computer. Three objects were employed in this task. The general procedure consisted of three different phases: a familiarization phase (one session of 20 min), a sample phase, and a test phase. […] Object discrimination (OD) during the test phase was evaluated as […]

mice [3] = assay: One-trial object recognition test; type: in vivo; settings: FIG. 1E-F; p<0.05, Student t-test; s.c. pellets 25 nmol/day
Procedure: All in vivo studies for characterization of peptides (stereology and behavioral analysis) were performed on 8-10-month-old female retired breeders of C57BI6 background. Animals were acclimatized for at least 3 weeks to exclude occasional pregnant mice from the studies. Mice were group-housed (3 animals per cage) with a 12:12 hours light/dark cycle and with free access to food and water. All procedures were conducted in accordance with approved protocols from our institutional Animal Welfare Committee. For the peptide treatment, mice (8 animals/group) received subcutaneous implants of long term continuous release depot pellets containing Peptide021 or Peptide022 at 25 nmol/day for 35 days of continuous dosing (Innovative Research of America, Sarasota, Fla.). For the control group (8 animals), pellets consisted of the carrier polymer only. Mice were anesthetized with 2.5% Avertin (0.38 ml for a 25 g animal). […]
In the one-trial object recognition task, animals are exposed to two different objects which they have to identify as novel or familiar based on the memory of an earlier experience with one of the two objects they encountered in the same open field. […] Object discrimination (OD) during the test phase was evaluated as […]

mice [4] = assay: Spatial reference memory task in the water maze; type: in vivo; settings: for effect on swim speed: FIG. 1D, water maze, s.c. pellets 25 nmol/day for 35 days; for performance in the learning of spatial memory task in water maze: FIG. 1G, p<0.001, two-way ANOVA, s.c. pellets 25 nmol/day
Procedure: as §1
Spatial reference learning and memory were evaluated in the water maze using a procedure adapted from that previously described by Morris et al. (1982). The test required that mice used a spatial navigational strategy based on a spatial representation of the environment to find a fixed submerged escape platform. The procedure was performed in a 180 cm diameter circular tank. The pool was filled with water (21±1)° C. made opaque by adding white non-toxic paint. Acquisition started with the escape platform (15 cm diameter submerged 1 cm below water surface) in the Northwest quadrant and each animal was given 90 s to find the platform. […] At the end of each trial, the mouse was left on the platform for 20 s, then dried and returned to its home cage until the next trial. Five such acquisition trials were given on each day for four consecutive days. A test for retention, or probe trial (PT), was given 24 hours later. During the probe trial the mouse was allowed to swim in the tank without the escape platform for 60 seconds. This was followed by second and third probe trials 15 and 30 days after the first probe trial. The measures of learning were the time and distance covered to reach the escape platform. For the probe trial, the tank was divided into four imaginary quadrants and a small zone where the escape platform had been. The measures of retention were calculated index as the ratio of time spent or distance covered in target quadrant over them in the three other quadrants. Mouse behavior in the water maze was monitored by a Samsung Digital Camera (SDC 4304) mounted to the ceiling and tracked and timed by a SMART (Pan Lab/San Diego Instruments) version 2.0.14 software. Immunohistochemistry

[5] = test system: BrdU-positive and BrdU/NeuN-double-positive cells in the dentate gyrus; assay: Neurogenesis in the dentate gyrus (BrdU / NeuN immunohistochemistry, unbiased stereology); type: in vivo, mice; settings: p<0.05, s.c. pellets 25 nmol/day
Procedure: as §1
At the end of the behavioral experiment, animals were anesthetized with an overdose of sodium pentobarbital (50 mg/kg) and transcardially perfused with 0.1 M phosphate buffered saline (PBS). After perfusion, the brains were removed from the skull, the left hemisphere was immediately frozen for future biochemical analysis and the right hemisphere was immersion fixed in 4% paraformaldehyde in 0.1 M PBS for at least 24 hours at room temperature. Tissues were equilibrated and stored in 30% sucrose solution at 4° C. until sectioning. The brains were sectioned sagittaly on a freezing sliding microtome at 40 μm through the entire hippocampus and the sections were stored in glycol anti-freeze solution (Ethylene glycol, glycerol and 0.1 M PBS in 3:3:4 ratio) at −20° C. until further processing. For double labeling of BrdU and NeuN, brain sections were pretreated with 2 M HCl at 37° C. for 30 min and neutralized with 0.1 M borate buffer (pH 8.5) for 10 minutes. Tissue sections were incubated first for 30 min with blocking buffer (4% normal goat serum +0.1% Tween-20 in PBS) and then overnight at 4° C. in the presence of BrdU (Millipore Corporation, Billerica, Mass.) and NeuN (Millipore Corporation) antibodies diluted 1:400 and 1:100, respectively. […] Neurogenesis in the dentate gyrus was evaluated by counting the number of BrdU-positive and BrdU/NeuN-double-positive cells in the dentate gyrus (DG). The number of positive cells was determined in every fifth section in a series of 40 μm sagittal sections throughout the DG using unbiased sterology (West et al., 1991). All BrdU-positive cells in the subgranular zone (SGZ) and granule cell layer (GCL) were counted using a fluorescent microscope (Nikon Eclipse 90i, Nikon Corporation, Japan). Double labeled cells were assessed by a confocal imaging system (D-Eclipse C1, Nikon Corporation). […] For each brain, at least 100 cells were counted based on coefficient of error determinations. […]

synaptophysin = assay: Expression of synaptophysin in DG (immunohistochemistry, mean optical density); type: in vivo, mice; settings: FIG. 3A; p<0.001; s.c. pellets 25 nmol/day
Procedure: (§2) All in vivo studies for characterization of peptides (stereology and behavioral analysis) were performed on 8-10-month-old female retired breeders of C57BI6 background. Animals were acclimatized for at least 3 weeks to exclude occasional pregnant mice from the studies. Mice were group-housed (3 animals per cage) with a 12:12 hours light/dark cycle and with free access to food and water. All procedures were conducted in accordance with approved protocols from our institutional Animal Welfare Committee. […]
(§3) At the end of the behavioral experiment, animals were anesthetized with an overdose of sodium pentobarbital (50 mg/kg) and transcardially perfused with 0.1 M phosphate buffered saline (PBS). […] Neurogenesis in the dentate gyrus was evaluated by counting the number of BrdU-positive and BrdU/NeuN-double-positive cells in the dentate gyrus (DG). The number of positive cells was determined in every fifth section in a series of 40 μm sagittal sections throughout the DG using unbiased sterology (West et al., 1991). All BrdU-positive cells in the subgranular zone (SGZ) and granule cell layer (GCL) were counted using a fluorescent microscope (Nikon Eclipse 90i, Nikon Corporation, Japan). Double labeled cells were assessed by a confocal imaging system (D-Eclipse C1, Nikon Corporation). […] For each brain, at least 100 cells were counted based on coefficient of error determinations. […]

synapsin I = assay: Expression of synapsin I in DG (immunohistochemistry, mean optical density); type: in vivo, mice; settings: FIG. 3B; p<0.001; s.c. pellets 25 nmol/day
Procedure: as §2, §3

[6] = test system: LIF-induced STAT3 phosphorylation at Tyr705; assay: Analysis of STAT3 phosphorylation in HepG2 cells; type: cell-based, human; settings: FIG. 4, different peptide concentrations with 0.25 nM LIF for 15 min, Western blot
Procedure: To investigate the molecular mechanism of action of Peptide021 in LIF signaling, HepG2 human hepatoma cell (ATCC, Manassas, Va.) at 80% confluence were treated with different concentrations of Peptide021 and with 0.25 nM LIF (Chemicon International Inc., Temecula, Calif.) for 15 min. The cells were lysed and subjected to Western blots developed with antibodies anti-phospho-Tyr 705 STAT3 and anti-STAT3 (Cell signaling Technology, Danvers, Mass.).
HepG2 cells were treated with different concentrations of Peptide 021 together with 0.25 nM LIF for 15 min, and then the STAT3 phosphorylation at Tyr705 (pY-STAT3) was determined by Western blots. The pY-STAT3 value was normalized to total STAT3 expression. Data are presented as percentages of the value from cells treated with 0.25 nM LIF alone (100%). *p<0.01.

effect on exploratory activity (mice [2])	effect on swim speed (mice [4])	Compound	effect on body weight [1]	complications associated with the implantation and treatment [1]	anxiety level of mice (mice [2])	ability to discriminate a new object versus a familiar object (mice [3])	performance in the learning of spatial memory task in water maze (mice [4])	effect in second probe trial (PT2) (mice [4]; FIG. 1H, after 15 days of the end of treatment)	effect in third probe trial (PT3) (mice [4]; FIG. 1H, after 30 days of the end of treatment)	performances in the first probe trial (mice [4]; FIG. 1H, probe trial 24 hours after acquisition, p<0.05)	numbers of BrdU positive cells in the GCL ([5]; FIG. 2B)	numbers of BrdU positive cells in the SGZ ([5]; FIG. 2B)	numbers of BrdU positive cells in the total DG ([5]; FIG. 2B)	number of BrdU/NeuN positive cells in the GCL ([5]; FIG. 2C)	number of BrdU/NeuN positive cells in the total DG ([5]; FIG. 2C)	expression of synaptophysin in the DG (synaptophysin)	expression of synapsin I in the DG (synapsin I)	LIF-induced STAT3 phosphorylation (pY-STAT3 normalized to total STAT3) [6]
did not induce any effect	did not induce any effect	CC(=O)N[C@@H](CC(=O)O)C(=O)NCC(=O)NCC(=O)N[C@@H](CC(C)C)C(=O)N[C@]12CC3CC(C1)C[C@@](C(N)=O)(C3)C2 [Peptide 021, Ac-Asp-Gly-Gly-Leu-^AGly-NH2] (HELM PEPTIDE1{[ac].D.G.G.L.[NC(=O)[C@]12CC3CC(C[C@](N[*:1])(C3)C1)C2]}$$$$V2.0)	did not induce any effect	No complications	reduced	significantly improved	increased performance	no longer effect	no longer effect	improved performances	significantly increased	significantly increased	significantly increased	significantly increased	significantly increased	significantly promoted	significantly promoted	Inhibition
did not induce any effect	did not induce any effect	CC(C)C[C@H](NC(=O)CNC(=O)CNC(=O)[C@H](CC(=O)O)NC(=O)C12CC3CC(CC(C3)C1)C2)C(=O)NC12CC3CC(C1)CC(C(N)=O)(C3)C2 [Peptide 022, 1-AdCO-DGGL^AG-NH2] (HELM PEPTIDE1{[O=C(C12CC3CC(CC(C3)C1)C2)[*:2]].D.G.G.L.[NC(=O)C12CC3CC(CC(N[*:1])(C3)C1)C2]}$$$$V2.0)	did not induce any effect	No complications	reduced	–	increased performance	–	–	–	–	–	–	–	–	–	–	–
